How the values were obtained:
Test in all cases: area over the GR curve, 72 h; higher = more effect;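 also: Dye Drop or Deep Dye Drop imaging of viable cells in 384-well plates (Hoechst nuclei, LIVE/DEAD dye), nine half-log doses, GR normalized to DMSO controls and time-zero plates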
EFM19 = tested on: EFM19
AU565 = tested on: AU565
HCC70 = tested on: HCC70
MDAMB231 = tested on: MDAMB231
SKBR3 = tested on: SKBR3
MDAMB468 = tested on: MDAMB468
MDAMB415 = tested on: MDAMB415
PDX1328 = tested on: PDX1328
MDAMB453 = tested on: MDAMB453
HCC1954 = tested on: HCC1954
HCC1569 = tested on: HCC1569
BT549 = tested on: BT549

| Compound | area over the GR curve (EFM19) [GR] | area over the GR curve (AU565) [GR] | area over the GR curve (HCC70) [GR] | area over the GR curve (MDAMB231) [GR] | area over the GR curve (SKBR3) [GR] | area over the GR curve (MDAMB468) [GR] | area over the GR curve (MDAMB415) [GR] | area over the GR curve (PDX1328) [GR] | area over the GR curve (MDAMB453) [GR] | area over the GR curve (HCC1954) [GR] | area over the GR curve (HCC1569) [GR] | area over the GR curve (BT549) [GR] |
| --- | --- | --- | --- | --- | --- | --- | --- | --- | --- | --- | --- | --- |
| CN(C)CC[C@H](CSc1ccccc1)Nc1ccc(S(=O)(=O)NC(=O)c2ccc(N3CCN(Cc4ccccc4-c4ccc(Cl)cc4)CC3)cc2)cc1[N+](=O)[O-] [ABT-737] (max 10 µM) | 0.111 | 0.0543 | 0.0935 | 0.162 | -0.0209 | 0.086 | 0.0607 | 0.304 | -0.0061 | 0.027 | 0.318 | -0.0258 |
| CO[C@@H](C)Cn1c(=O)n(C)c2cnc3ccc(-c4cncc(C(C)(C)O)c4)cc3c21 (max 10 µM) | 0.813 | 0.793 | 0.8 | 0.607 | 0.824 | 0.669 | 0.922 | 0.72 | 0.851 | 0.822 | 0.768 | 0.765 |
| CN(C)C/C=C/C(=O)Nc1ccc(C(=O)Nc2cccc(Nc3ncc(Cl)c(-c4c[nH]c5ccccc45)n3)c2)cc1 [THZ1] (max 1 µM) | 0.159 | 0.607 | 0.762 | 0.356 | 0.673 | 0.48 | 0.453 | 0.483 | 0.553 | 0.31 | 0.363 | 0.381 |
| CS(=O)(=O)N1CCN(Cc2cc3nc(-c4cccc5[nH]ncc45)nc(N4CCOCC4)c3s2)CC1 [Pictilisib/GDC0941] (max 10 µM) | 0.439 | 0.646 | 0.573 | 0.206 | 0.512 | 0.205 | 0.378 | 0.296 | 0.391 | 0.309 | 0.346 | 0.208 |
| CN1CCN(C(=O)c2ccc3cc(CCNc4ncnc5ccc(C#N)cc45)ccc3c2)CC1 [senexin b] (max 10 µM) | 0.219 | 0.111 | 0.209 | 0.0788 | 0.172 | 0.28 | 0.173 | 0.0976 | 0.193 | 0.327 | 0.158 | 0.181 |
| CC1(N)CCN(c2cnc(-c3cccc(Cl)c3Cl)c(N)n2)CC1 [SHP099] (max 10 µM) | -0.0009 | 0.0263 | 0.074 | -0.0083 | 0.0253 | 0.134 | 0.0605 | 0.0593 | 0.0286 | 0.0791 | -0.114 | 0.0349 |
| CNC(=O)c1cccc(-c2ccc3c(N4CCOC[C@@H]4C)nc(N4CCOC[C@@H]4C)nc3n2)c1 [AZD2014] (max 10 µM) | 0.829 | 0.757 | 0.778 | 0.405 | 0.87 | 0.401 | 0.762 | 0.706 | 0.692 | 0.568 | 0.625 | 0.491 |
| O=C(c1cc(Cc2n[nH]c(=O)c3ccccc23)ccc1F)N1CCN(C(=O)C2CC2)CC1 [Olaparib/AZD2281] (max 10 µM) | 0.0595 | 0.0653 | -0.0522 | 0.0581 | 0.04 | 0.0573 | -0.0472 | 0.0373 | 0.241 | 0.0536 | 0.053 | 0.0657 |
| O=C1NC(=NCc2cccs2)SC1=Cc1ccc2ncccc2c1 [R0-3306] (max 10 µM) | 0.132 | 0.406 | 0.0814 | 0.0059 | 0.163 | 0.185 | 0.0262 | 0.112 | 0.102 | 0.0716 | 0.022 | 0.12 |
| CC(C)n1nc(-c2ccc3oc(N)nc3c2)c2c(N)ncnc21 [INK128/MLN0128] (max 3.162 µM) | 0.682 | 0.791 | 0.702 | 0.486 | 0.971 | 0.502 | 0.692 | 0.745 | 0.756 | 0.565 | 0.508 | 0.534 |
| Nc1cc(C(F)(F)F)c(-c2cc(N3CCOCC3)nc(N3CCOCC3)n2)cn1 [Buparlisib/NVP-BKM120] (max 10 µM) | 0.323 | 0.662 | 0.435 | 0.275 | 0.585 | 0.357 | 0.35 | 0.395 | 0.331 | 0.39 | 0.298 | 0.248 |
| COc1cccc(OCCCN)c1-c1cc(Nc2cnc(C#N)cn2)n[nH]1 | 0.041 | 0.5 | 1.64 | 1.09 | 0.802 | 0.227 | 0.0862 | 0.442 | 0.843 | 1.21 | 0.355 | 1.4 |
| Cc1nn(C)c(COc2ccc(N3CCN(S(=O)(=O)N(C)C)CC3)cc2)c1-c1cccc2c(CCCOc3cccc4ccccc34)c(C(=O)O)n(CCN3CCOCC3)c12 (max 10 µM) | -0.0581 | -0.0201 | 0.0018 | 0.0519 | 0.0389 | 0.0206 | 0.0101 | -0.0317 | -0.0756 | -0.0351 | -0.0353 | 0.0083 |
